The source of these data is patent EP0285267A2, “Pyridine derivatives for treatment and prevention of liver damage, and their preparation” (YAMANOUCHI PHARMACEUTICAL CO. LTD., priority 1987, dated 1988).

Data set [1] has as its system serum GPT elevation due to carbon tetrachloride liver damage. In words: Carbon tetrachloride induced liver damage in rats, inhibition of serum GPT elevation. As to conditions: given twice (1 hour before and 3 hours after carbon tetrachloride 1 ml/kg orally), blood 24 hours after, route not given. The class given is in vivo, Male Sprague Dawley rats. How it is done: The experimental liver damage was induced with carbon tetrachloride as the challenging agent. Carbon tetrachloride caused liver damage resembling that of alcohol-induced liver injury.
Male Sprague Dawley rats weighing around 160 grams were used. Carbon tetrachloride was dissolved in olive oil to obtain 20% solution, which was administed in doses of 5ml/kg orally (carbon tetrachloride: 1 ml/ kg). The test compounds were suspended in Cremophor buffer for intraperitoneal administration, and in 0.5% methyl cellulose solution for oral administration; and the test solutions were administered in doses of 5ml/kg respectively. The administration of the test compound was conducted twice, namely, 1 hour before and 3 hours after the administration of carbon tetrachloride. 24 hours after the administration of carbon tetrachloride, blood was collected via the great abdominal vein, and the level of serum GPT was measured. […] Thus, the compounds of this invention are usuful for agents for treatment and prevention of liver damage.
Other compounds, of formula I-B, were also found to have activity inhibiting the elevation of GPT due to carbon tetrachloride administration.

In data set [2] the test system is increase in GPT level, galactosamine-induced liver damage. In words: D-galactosamine challenge in rats (test compound in 0.5 % methyl cellulose), inhibition of increase in serum GPT. The class given is in vivo, SD male rats. The note with it: 30 mg/kg oral in 0.5 % methyl cellulose, twice (1 hour before and 3 hours after D-galactosamine 425mg/kg i.p.), blood 24 hours after. As to the method:
Experimental liver damage was induced with D-galactosamine as the challenging agent. Liver damage caused by D-galactosamine resembled that of acute hepatitis. The galactosamine hepatitis model is described in known prior art.
Animals used: SD male rats (7 week age, about 220 g body weight)
Administration method of the challenge compound: • D-galactosamine was dissolved in a physiological sodium chloride aqueous solution, and this solution was administered intraperitoneally to give galactosamine-induced liver damage. (Administered dose: 425mg/4mllkg) Administration method of the test compound: The test compound was suspended in 0.5 % methyl cellulose solution, and administered in doses of 30 mg/5 mi/kg, orally. The test compound was administered twice (1 hour before the D-galactosamine administration and 3 hours after its administration). 24 hours after the D-galactosamine administration, blood was obtained from the pentobarbital-anesthetized rats,and the level of serum-GPT was determined.

A short description of data set [3]: Solubility in water (statement). Format: physicochemical. As to conditions: qualitative statement.
Data set [4] can be described thus: Absorbability / bioavailability (statement). The class given is in vivo. The note with it: qualitative statement; oral suspension in 0.5 % methyl cellulose.

As to `COC(=O)c1c(C)nc(C)c(C(=O)OC)c1-c1cccc2c1OCO2` [Example U, dimethyl 4-(2,3-methylenedioxy)phenyl-2,6-dimethylpyridine-3,5-dicarboxylate], the “Inhibiting effect (%) (30mg/kg administration)” value (“Inhibiting effect (%)” below) in data set [1] was 76.0%.
With `COC(=O)C1=C(C)NC(C)=C(C(=O)OC)C1c1ccc2c(c1C(=O)OC)OCO2` [Example 7, dimethyl 4-(2-methoxycarbonyl-3,4-meth-lenedioxy)phenyl-2,6-dimethyl-1,4-dihydropyridine-3,5-dicarboxylate], the “Inhibiting effect (%)” value in data set [1] came to 74.9%. The “Inhibition rate (%) (30mg/kg, oral administration)” value (“Inhibition rate (%)” for short) in data set [2] amounted to 70.7%.
On to `COC(=O)c1c(C)nc(C)c(C(=O)OC)c1-c1c([N+](=O)[O-])ccc2c1OCO2` [Example 36, Dimethyl 4-(2,3-methylenedioxy-6-nitro)phenyl-2,6-dimethylpyridine-3,5-dicarboxylate], for which the “Inhibiting effect (%)” value in data set [1] is listed as 89.7%.
On to `COC(=O)c1c(-c2c(C(=O)OC)c(C)nc(C)c2C(=O)OC)cc(OC)c2c1OCO2` [Example 14], for which, in data set [2], the “Inhibition rate (%)” value worked out at 67.8%.
As for `COC(=O)C1=C(C)NC(C)=C(C(=O)OC)C1c1ccccc1C(=O)OC` [Example C, dimethyl 4-(2-methoxycarbonyl)phenyl-2,6-dimethyl-1,4-dihydropyridine-3,5-dicarboxylate], in data set [1], the “Inhibiting effect (%)” value turned out to be 91.6%.
Regarding `COC(=O)C1=C(C)NC(C)=C(C(=O)OC)C1c1cccc2c1OCO2` [Example P, dimethyl 4-(2,3-methylenedioxy)phenyl-2,6-dimethyl-1,4-dihydropyridine-3,5-dicarboxylate], in data set [1], the “Inhibiting effect (%)” value came out at 85.4%.
Regarding `CCOc1c(N)c2c(c(OCC)c1OCC)C(C1c3c(cc4c(c3OC)OCO4)CCN1C)OC2=O` (stereo not shown) [Tritoqualine], in data set [2], the “Inhibition rate (%)” value was determined as 0%. Besides, the solubility in water result in data set [3] is on record as “difficultly soluble in water”. Further, the “bioavailability (absorbability)” value in data set [4] is recorded as “low bioavailability”.
For the compound `COC(=O)c1c(C)nc(C)c(C(=O)OC)c1-c1ccc2c(c1OC)OCO2` [Example 2, dimethyl 4-(2-methoxy-3,4-methylenedioxy)phenyl-2,6-dimethylpyridine-3,5-dicarboxylate], the “Inhibiting effect (%)” value in data set [1] was 81.1%.
As for “dimethyl 4-(3,4-methylenedioxy)phenyl-2,6-dimethyl-1,4-dihydropyridine-3,5-dicarboxylate [Example A]”, the “Inhibiting effect (%)” value in data set [1] is on record as 68.6%.
For `COC(=O)C1=C(C)NC(C)=C(C(=O)OC)C1c1cc2c(cc1Br)OCO2` [Example 22, Dimethyl 4-(3,4-methylenedioxy-6-bromo)phenyl-2,6-dimethyl-1,4-dihydropyridine-3,5-dicarboxylate], the “Inhibiting effect (%)” value in data set [1] was found to be 82.3%.
